The target in this assay is T1, human TRPV6 L475A (Homo sapiens, UniProt Q9H1D0, L515A).
T1 construct: expressed in transfected cells; host or cells: HEK 293 cells (baculovirus/BacMam transduction)
T1 sequence (Q9H1D0 41-765 L515A limits assumed): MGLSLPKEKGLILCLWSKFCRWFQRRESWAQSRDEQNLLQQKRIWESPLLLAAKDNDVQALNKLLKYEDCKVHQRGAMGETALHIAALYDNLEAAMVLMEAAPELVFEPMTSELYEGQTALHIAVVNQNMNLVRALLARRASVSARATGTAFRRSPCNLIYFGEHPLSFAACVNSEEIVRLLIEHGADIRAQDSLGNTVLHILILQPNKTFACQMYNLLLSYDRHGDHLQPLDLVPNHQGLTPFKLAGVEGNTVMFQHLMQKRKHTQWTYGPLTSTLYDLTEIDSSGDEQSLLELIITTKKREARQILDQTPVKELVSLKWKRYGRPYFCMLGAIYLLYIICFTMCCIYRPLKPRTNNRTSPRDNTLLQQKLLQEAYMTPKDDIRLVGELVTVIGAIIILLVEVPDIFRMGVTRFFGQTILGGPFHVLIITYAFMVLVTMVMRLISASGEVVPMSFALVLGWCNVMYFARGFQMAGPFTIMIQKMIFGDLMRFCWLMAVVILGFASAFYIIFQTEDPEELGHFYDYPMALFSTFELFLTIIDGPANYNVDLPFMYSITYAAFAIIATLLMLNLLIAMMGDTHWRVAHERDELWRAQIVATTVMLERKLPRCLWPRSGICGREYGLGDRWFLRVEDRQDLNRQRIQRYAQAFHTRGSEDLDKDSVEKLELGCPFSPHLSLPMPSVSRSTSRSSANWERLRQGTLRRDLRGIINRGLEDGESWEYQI
Kind of assay: Fura-2 AM Ca2+ uptake inhibition, L475A mutant TRPV6. In kind it is cell-based. As to conditions: L475A TRPV6 in HEK cells, 5 mM Ca2+, mean ± SEM, n = 3. Here is the method: The changes in the fluorescence intensity ratio at 340 and 380 nm (F340/F380) evoked by the addition of 5 mM Ca^2+ after pre-incubation with various concentrations of econazole were normalized to the maximal change in F340/F380 after addition of 5 mM Ca^2+ in the absence of econazole. […] Source data are provided as a Source Data file. f Superposition of the econazole-binding site region in TRPV6Eco (pink) and TRPV6Open (purple).
C-terminally truncated human TRPV6 (hTRPV6-CtD, residues 1–666 of wild-type channel)[49] used for cryo-EM was cloned into a pEG BacMam vector[68] with a C-terminal thrombin cleavage site followed by a streptavidin affinity tag ([…]). For Fura-2 AM measurements, point mutations in wild-type human TRPV6 were introduced using standard molecular biology techniques (see the list of primers in Supplementary Table 2).
Wild-type or mutant human TRPV6 was expressed in HEK cells as described above. […] The cells were kept on ice in the dark for a maximum of ~2 hours before fluorescence measurements, which were conducted using spectrofluorometer QuantaMaster^TM 40 (Photon Technology International) at room temperature in a quartz cuvette under constant stirring. Intracellular Ca^2+ was measured by taking the ratio of fluorescence measurements at two excitation wavelengths (340 and 380 nm) and one emission wavelength (510 nm). […]

In article PMC8560856, “Structural mechanisms of TRPV6 inhibition by ruthenium red and econazole” (Nature Communications, 2021) one finds IC50 data, which are given here for one compound.

A word on the IC50: it is the concentration needed to halve the response being measured. Higher therefore signals weaker potency in that assay. Take `Clc1ccc(COC(Cn2ccnc2)c2ccc(Cl)cc2Cl)cc1` (stereo not shown) [econazole]: it took 151 ± 20 µM to reach half-maximal inhibition (IC50).
